Source: patent US20210188897A1, “NEUROACTIVE STEROIDS AND COMPOSITIONS AND METHODS THEREOF” (Sparx Therapeutics, Inc., priority 2019, published 2021)
Read-outs that look alike come from different tables or passages of the source.

What was measured:
[1] = biological target: T1, α1β2γ2 GABAA receptors (Homo sapiens, UniProt P14867+P47870); assay: GABAAR modulator FLIPR assay (membrane potential), α1β2γ2; assay type: cell-based
T1 construct: expressed in transfected cells; host or cells: 293T cells (ATCC-CRL-1573)
T1 sequence (P18507 40-475 partner, one chain of several): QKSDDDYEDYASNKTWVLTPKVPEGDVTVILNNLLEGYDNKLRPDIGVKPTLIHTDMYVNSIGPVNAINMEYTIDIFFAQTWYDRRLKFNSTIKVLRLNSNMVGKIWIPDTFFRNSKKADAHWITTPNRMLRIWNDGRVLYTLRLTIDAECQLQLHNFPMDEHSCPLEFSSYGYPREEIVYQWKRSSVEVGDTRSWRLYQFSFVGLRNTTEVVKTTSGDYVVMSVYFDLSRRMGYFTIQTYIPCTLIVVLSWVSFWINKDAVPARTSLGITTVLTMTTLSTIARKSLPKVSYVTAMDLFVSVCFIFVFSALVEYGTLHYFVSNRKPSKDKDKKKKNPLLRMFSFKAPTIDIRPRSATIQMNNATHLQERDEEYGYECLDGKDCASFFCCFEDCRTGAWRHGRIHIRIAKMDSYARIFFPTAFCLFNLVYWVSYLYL
Experimental: (§1) 293T cells (ATCC-CRL-1573) were applied for transient expression of α1β2γ2 or α1β2δ GABAA receptors. Cells were plated in a 96 well plate with a confluence of about 70%-80% and cultured overnight in complete medium without antibiotics. The α1β2γ2 or α1β2δ subunits were transfected via the lipofectamine method. The FLIPR assay was developed to quantitatively assess the compounds' PAM activity in α1β2γ2 and α1β2δ GABAA receptors. The FLIPR assays were conducted 48 h post-transfection. The FLIPR reagents were purchased from Molecular Devices Corporation (Membrane potential red kit, Catalog number R8126). The FMP-Red-Dye was reconstituted to 1× assay buffer. Growth medium was removed from the wells and cells were loaded with 100 μL FMP-Red-Due solution for 30 minutes in the dark at r.t. After dye loading, each plate was transferred to the FLIPR Tetra Station: the dye was excited at 510-545 nm, and the fluorescence signals were recorded at 565-625 nm. Baseline recordings were acquired for 1 minute. FMP-Red-Dye is a slow-response, potential sensitive probe and the maximal response is usually seen within 2 minutes after triggering cellular depolarization or hyperpolarization. After baseline recording, the different doses of compound solutions were firstly added on cells and the fluorescent signals were recorded for 5 minutes. Then the cells were followed by a second addition with ligand GABA solution and recorded for another 3.5 minutes. Cell responses were calculated as ΔF=Fmax−Fmin, where Fmax was the maximum response in arbitrary fluorescence units, and Fmin was the baseline arbitrary fluorescence unit value.

[2] = biological target: T2, α1β2δ GABAA receptors (Homo sapiens, UniProt P14867+P47870); assay: GABAAR modulator FLIPR assay (membrane potential), α1β2δ; assay type: cell-based
T2 construct: expressed in transfected cells; host or cells: 293T cells (ATCC-CRL-1573)
T2 sequence (P14867 28-456): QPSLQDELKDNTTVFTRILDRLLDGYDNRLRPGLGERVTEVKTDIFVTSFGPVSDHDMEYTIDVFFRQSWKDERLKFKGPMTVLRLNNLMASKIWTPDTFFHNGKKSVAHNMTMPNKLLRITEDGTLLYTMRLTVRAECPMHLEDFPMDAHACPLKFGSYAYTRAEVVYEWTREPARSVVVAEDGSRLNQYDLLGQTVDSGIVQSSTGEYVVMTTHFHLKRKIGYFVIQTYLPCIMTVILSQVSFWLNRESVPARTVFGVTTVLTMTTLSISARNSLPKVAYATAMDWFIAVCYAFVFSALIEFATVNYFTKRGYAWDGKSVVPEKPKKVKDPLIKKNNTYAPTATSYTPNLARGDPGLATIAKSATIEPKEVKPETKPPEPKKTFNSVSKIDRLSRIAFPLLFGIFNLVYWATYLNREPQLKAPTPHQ
T2 sequence (P47870 25-512 limits assumed): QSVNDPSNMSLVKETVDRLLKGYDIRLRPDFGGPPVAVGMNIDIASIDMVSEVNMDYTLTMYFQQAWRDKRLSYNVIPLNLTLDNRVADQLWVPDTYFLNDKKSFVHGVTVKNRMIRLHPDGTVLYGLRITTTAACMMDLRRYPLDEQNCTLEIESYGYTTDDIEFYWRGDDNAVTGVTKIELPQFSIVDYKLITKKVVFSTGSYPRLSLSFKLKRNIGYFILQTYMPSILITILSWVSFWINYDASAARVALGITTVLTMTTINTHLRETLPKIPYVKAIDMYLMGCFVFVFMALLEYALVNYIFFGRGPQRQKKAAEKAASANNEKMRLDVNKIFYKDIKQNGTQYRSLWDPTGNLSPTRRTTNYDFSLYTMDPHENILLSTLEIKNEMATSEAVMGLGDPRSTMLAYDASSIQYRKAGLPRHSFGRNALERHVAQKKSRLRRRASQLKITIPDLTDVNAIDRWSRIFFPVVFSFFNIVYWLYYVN
T2 sequence (O14764 17-452 partner limits assumed): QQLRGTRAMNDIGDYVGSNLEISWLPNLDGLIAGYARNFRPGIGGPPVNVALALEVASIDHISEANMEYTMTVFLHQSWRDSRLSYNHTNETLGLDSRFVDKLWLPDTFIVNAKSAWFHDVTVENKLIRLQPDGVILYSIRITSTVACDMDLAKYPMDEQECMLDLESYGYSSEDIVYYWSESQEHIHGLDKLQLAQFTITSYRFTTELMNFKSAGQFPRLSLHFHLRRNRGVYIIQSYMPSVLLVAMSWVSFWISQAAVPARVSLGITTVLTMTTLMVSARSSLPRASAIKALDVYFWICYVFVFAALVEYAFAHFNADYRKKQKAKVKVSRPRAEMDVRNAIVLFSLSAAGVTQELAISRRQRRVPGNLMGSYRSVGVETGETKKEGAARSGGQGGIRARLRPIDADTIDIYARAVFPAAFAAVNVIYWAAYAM
Experimental: as §1

[3] = system: 5XFAD and wild type mice; assay: Open field test; assay type: in vivo; conditions: 9-month old 5XFAD and wild type mice, 20 mg/kg oral gavage, 45 minutes post dosing; FIG. 2
Experimental: 9-month old 5XFAD transgenic mice (expressing human APP and PSEN1 transgenes with 5 AD-linked mutations) and wild type litermates (C57/B16) were dosed as at 20 mg/kg via oral gavage. The total distance travelled was recorded in an open field chamber 45 minutes post dosing.

[4] = system: 5XFAD and wild type mice; assay: Forced swim test; assay type: in vivo; conditions: 9-month old 5XFAD and wild type mice, 20 mg/kg oral gavage, 45 minutes post dosing; FIG. 3
Experimental: 9-month old 5XFAD transgenic mice (expressing human APP and PSEN1 transgenes with 5 AD-linked mutations) and wild type litermates (C57/B16) were dosed as at 20 mg/kg via oral gavage. The cognitive and mood behavioral tests were performed 45 minutes post dosing.
The forced swim test is a test for depression-like behavior in rodents. The assay involves observing a mouse stay afloat in a tank of water and monitoring how much time it spends immobile.

[5] = 293T cells transiently expressing α1β2γ2 GABAA receptors, FLIPR, PAM activity, read-out: EC50 in α1β2γ2/293T
[6] = 293T cells transiently expressing α1β2δ GABAA receptors, FLIPR, PAM activity, read-out: EC50 in α1β2δ/293T

Row | SMILES | EC50 [1] [nM] | EC50 [2] [nM] | EC50 [1, 5] [nM] | EC50 [2, 6] [nM] | locomotor functions (total distance travelled in open field chamber) [3] | efficacy in forced swim test (time immobile, depression-like behavior) [4]
1 | C=C1C[C@H]2[C@@H](CC[C@@H]3C[C@](C)(O)CC[C@@H]32)[C@@H]2CC[C@H](C#N)[C@@]12C [Example 1, (3R,5R,8R,9R,10S,13S,14S,17S)-3-hydroxy-3,13-dimethyl-12-methylenehexadecahydro-1H-cyclopenta[a]phenanthrene-17-carbonitrile] | 270 | 81 |  |  |  | 
2 | C=C1C[C@H]2[C@@H](CC[C@@H]3C[C@](C)(O)CC[C@@H]32)[C@@H]2CC[C@H](C(C)=O)[C@@]12C [Example 2, 1-((3R,5R,8R,9R,10S,13S,14S,17S)-3-hydroxy-3,13-dimethyl-12-methylenehexadecahydro-1H-cyclopenta[a]phenanthren-17-yl)ethan-1-one] |  |  | 280 | 98 |  | 
3 | C[C@@]1(O)CC[C@H]2[C@H](CC[C@@H]3[C@@H]2CC(F)(F)[C@]2(C)[C@@H](C#N)CC[C@@H]32)C1 [Example 4, (3R,5R,8R,9R,10S,13S,14S,17S)-12,12-difluoro-3-hydroxy-3,13-dimethylhexadecahydro-1H-cyclopenta[a]phenanthrene-17-carbonitrile] |  |  | 2950 | 710 |  | 
4 | CC(=O)[C@H]1CC[C@H]2[C@@H]3CC[C@@H]4C[C@](C)(O)CC[C@@H]4[C@H]3CC(F)(F)[C@]12C [Example 5, 1-((3R,5R,8R,9R,10S,13S,14S,17S)-12,12-difluoro-3-hydroxy-3,13-dimethylhexadecahydro-1H-cyclopenta[a]phenanthren-17-yl)ethan-1-one] |  |  | 390 | 190 |  | 
5 | C[C@@]1(O)CC[C@H]2[C@H](CC[C@@H]3[C@@H]2CC(F)(F)[C@]2(C)[C@@H](C(=O)Cn4cc(C#N)cn4)CC[C@@H]32)C1 [Example 6, 1-(2-((3R,5R,8R,9R,10S,13S,14S,17S)-12,12-difluoro-3-hydroxy-3,13-dimethylhexadecahydro-1H-cyclopenta[a]phenanthren-17-yl)-2-oxoethyl)-1H-pyrazole-4-carbonitrile] |  |  | 470 | 120 |  | 
6 | C[C@@]1(O)CC[C@H]2[C@H](CC[C@@H]3[C@@H]2CC(F)(F)[C@]2(C)[C@@H](C(=O)Cn4cc(F)cn4)CC[C@@H]32)C1 [Example 7, 1-((3R,5R,8R,9R,10S,13S,14S,17S)-12,12-difluoro-3-hydroxy-3,13-dimethylhexadecahydro-1H-cyclopenta[a]phenanthren-17-yl)-2-(4-fluoro-1H-pyrazol-1-yl)ethan-1-one] |  |  | 740 | 390 |  | 
7 | C[C@@]1(O)CC[C@H]2[C@H](CC[C@@H]3[C@@H]2CC(F)(F)[C@]2(C)[C@@H](C(=O)Cn4ccc(C#N)n4)CC[C@@H]32)C1 [Example 8, 1-(2-((3R,5R,8R,9R,10S,13S,14S,17S)-12,12-difluoro-3-hydroxy-3,13-dimethylhexadecahydro-1H-cyclopenta[a]phenanthren-17-yl)-2-oxoethyl)-1H-pyrazole-3-carbonitrile] |  |  | 630 | 250 | no interference of the locomotor functions | genotype-specific efficacy
